Measurements published in ChEMBL document CHEMBL1221378, “Synthesis of cholestane glycosides bearing OSW-1 disaccharide or its 1-->4-linked analogue and their antitumor activities” (Bioorg Med Chem Lett, 2010).

Legend:
Type in all cases: functional, cell-based
BGC-823 = test: Cytotoxicity against human BGC823 cells after 72 hrs by MTT assay; conditions: BGC-823, 72 h
A549 = test: Cytotoxicity against human A549 cells after 72 hrs by MTT assay; conditions: A549, 72 h
Bel-7402 = test: Cytotoxicity against human Bel7402 cells after 72 hrs by MTT assay; conditions: Bel-7402, 72 h
A2780 = test: Cytotoxicity against human A2780 cells after 72 hrs by MTT assay; conditions: A2780, 72 h
HCT-8 = test: Cytotoxicity against human HCT8 cells after 72 hrs by MTT assay; conditions: HCT-8, 72 h

SMILES	IC50 (BGC-823) [nM]	IC50 (A549) [nM]	IC50 (Bel-7402) [nM]	IC50 (A2780) [nM]	IC50 (HCT-8) [nM]
COc1ccc(C(=O)O[C@H]2[C@H](O[C@@H]3[C@@H](OC(C)=O)[C@H](O[C@H]4C[C@H]5[C@@H]6CC=C7C[C@@H](O)CC[C@]7(C)[C@H]6CC[C@]5(C)[C@H]4[C@H](C)C(=O)CC[C@@H](C)CO)OC[C@H]3O)OC[C@@H](O)[C@@H]2O)cc1	13	46	39	73	23
COc1ccc(C(=O)O[C@H]2[C@H](O[C@@H]3CO[C@@H](O[C@H]4C[C@H]5[C@@H]6CC=C7C[C@@H](O)CC[C@]7(C)[C@H]6CC[C@]5(C)[C@H]4[C@H](C)C(=O)CC[C@@H](C)CO)[C@H](OC(C)=O)[C@H]3O)OC[C@@H](O)[C@@H]2O)cc1	> 10000	> 10000	> 10000	> 10000	> 10000
COc1ccc(C(=O)O[C@H]2[C@H](O[C@@H]3CO[C@@H](O[C@@H](CC[C@@H](C)CO)[C@@H](C)[C@H]4[C@@H](O[C@@H]5OC[C@@H](O[C@@H]6OC[C@@H](O)[C@H](O)[C@H]6OC(=O)c6ccc(OC)cc6)[C@H](O)[C@H]5OC(C)=O)C[C@H]5[C@@H]6CC=C7C[C@@H](O)CC[C@]7(C)[C@H]6CC[C@]45C)[C@H](OC(C)=O)[C@H]3O)OC[C@@H](O)[C@@H]2O)cc1	> 10000	> 10000	> 10000	> 10000	> 10000
CC(=O)O[C@H]1C(=O)[C@@]2(C)[C@H]([C@H](OC(=O)c3ccccc3)[C@]3(O)C[C@H](OC(=O)[C@H](O)[C@@H](NC(=O)c4ccccc4)c4ccccc4)C(C)=C1C3(C)C)[C@]1(OC(C)=O)CO[C@@H]1C[C@@H]2O [PACLITAXEL]	< 1	16	60	< 1	51
